Reference: patent US8501424B2, “Cd4+ epitopes of bone morphogenetic proteins” (Danisco US Inc., priority 2003, dated 2013)

Key:
CD4+ T-cells = experiment: I-MUNE T-cell proliferation assay (dendritic cells + autologous CD4+ T-cells + 15-mer peptides, tritiated thymidine); format: cell-based, human; parameters: key to epitope designation: major: response rate within the tested donor pool is at least three standard deviations above the mean background response rate; moderate: response rate within the tested donor pool is at least two standard deviations above the mean or three times the background; minor: response rate within the tested donor pool is at least twice the background; settings: 83 donors; for structure value: 15-mer peptide sets, 5 μg/ml, positive response SI >= 2.95, analysis method (QC/non-QC) not stated at place
Source text: Full length amino acid sequences of human BMP-7 (GenBank Accession No. P18075) and BMP-14 (GenBank Accession No. P43026) precursor proteins were used to create 15-mer peptide sets. These variant peptides were synthesized by Mimotopes, using the multi-pin synthesis technique known in the art (See e.g., Maeji et al., J. Immunol. Meth., 134:23-33 [1990]). The 15-mer peptides were created such that sequences with adjacent peptides shared 12 amino acids (i.e., each peptide was offset by three amino acids). Peptides were diluted with DMSO to provide a stock concentration of approximately 2 mg/ml. The final concentration of peptides used in each assay was 5 μg/ml.
Fresh human peripheral blood cells were collected from 83 community donors. These cells were tested to determine antigenic epitopes in BMP-7 and BMP-14, as described in Example 3, below.
Peripheral mononuclear blood cells (PBMCs) (stored at room temperature, no older than 24 hours) were prepared for use as follows. PBMCs were isolated from buffy coat material by centrifuging over an underlay of LYMPHOPREP™ at 1000×g for 30 minutes. The interface layer was collected and washed and counted using the CELL-DYN® 3700 System (Abbott). Then, suspensions containing 10^8 PBMCs resuspended in 30 ml of AIM-V (Invitrogen) were prepared and the cells were allowed to adhere to plastic T-75 culture flasks for two hours. The remainder of the cells were frozen at 5×10^7 cells/ml in 90% FCS (Gibco/BRL) and 10% DMSO (Sigma).
After the two hour PBMC incubation period, non-adherent cells were removed from the culture flasks. The adherent cells were cultured in the flasks with 800 units/ml recombinant human GM-CSF (Endogen) and 100 units/ml recombinant human IL4 (Endogen) at 37° C., 5% CO2. On day 5 of incubation, 50 units/ml recombinant human Il-1α (Endogen) and 0.2 units/ml recombinant human TNF-α were added to the cultures. Adherent and non-adherent dendritic cells were harvested, washed, and counted on day 7, following a one-hour treatment with […] mitomycin C (Sigma) and 10 mM EDTA.
Autologous CD4+ T-cells were prepared from frozen aliquots of PBMCs. After thawing and washing in DPBS, CD4+ T-cells were isolated using a commercially available CD4 negative selection kit (Dynal), according to the manufacturer's instructions. Cells were counted using the Abbott CELL-DYN® 3700 System. The purity obtained using these methods was generally found to be greater than 90%.
This Example describes the assay system used in the present invention. This test system is also referred to as the “I-MUNE®” assay system. In 96-well, round bottom plates, autologous dendritic cells and CD4+ T-cells were combined with test peptides. More specifically, in a volume of 100 μl/well, 2×10^4 dendritic cells in AIM V were combined with individual peptides (at a final peptide concentration of 5 μg/ml and a final DMSO concentration of 0.25%). After a one-hour incubation at 37° C., 5% CO2, 2×10^5 CD4+ T-cells were added to the culture for a total volume of 200 μl. Negative control wells contained dendritic cells, CD4+ T-cells and 0.25% DMSO. Positive control wells contained dendritic cells, CD4+ T-cells (at the same concentrations as the test wells) and 0.25% DMSO with 0.4 μg/ml tetanus toxoid (List). Individual peptides were tested in duplicate for each donor.
After 5 days of incubation at 37° C., 5% CO2, the cultures were pulsed with 0.25 μCi/well tritiated thymidine (Perkin Elmer). After a subsequent 24 hours of incubation, plates were harvested and assessed for incorporation of the tritiated thymidine (i.e., T-cell proliferation) using a Wallac MICROBETA® TriLux liquid scintillation counter (Perkin Elmer).
For each individual buffy coat sample, the average CPM values for all of the peptides were analyzed. The average CPM values for each peptide were divided by the average CPM value for the control (DMSO only) wells to determine the “stimulation index” (SI). […]

[1] = tested on: HLA Class II antigens at DRB1 and DQB1; experiment: HLA associations of proliferative responses to epitope peptides; format: cell-based, human; settings: for relative risk (RR): 83 donors
Description: In addition to the above analyses, the HLA associations with BMP-7 and BMP-14 epitope peptides were determined. In these experiments, the proliferative response data to five epitope peptides (#3, #7, #8, #16 and #31) were tested in 83 donors for which the expression of HLA Class II antigens at DRB1 and DQB1 was also tested. For four of the peptides, the reaction was assessed by two methods (i.e., “QC” and “non-QC,” “[nQC”] as described above). The statistically significant associations found by both methods were as follows. For epitope #3 and DR11, the relative risk (RR) was 6.25; p<0.0005 [QC], RR=4.17 p<0.005 [nQC]. For epitope #3 and DQ2, the RR was 0.17 p<0.04 [QC], RR=0.13 p<0.01 [nQC]. For epitope #3 and DQ9, the RR was 6.67 p<0.003 [QC]; RR=4.85 p<0.013 [nQC]. For epitope #8 and DR11, the RR was 6.6 p<0.0003. For epitope #31 and DR7, the RR was 8.32 p<0.001 [QC]; RR=4.44 p<0.002 [nQC].
In addition the average stimulation index (SI) was higher among DR11+ than among DR11− donors for peptide #3 (QC) (5.8 fold, p<0.0004) and peptide #8 (2.3 fold p<0.007). Also the average SI was higher among DR7+ than among DR7− donors for peptide #31 (QC) (2.7 fold p<0.0007).

[2] = patients treated for spinal problems; cited from earlier work

SNVILKKYRNMVVRA (BMP-7 epitope) [Peptide 41]
epitope designation (CD4+ T-cells): minor
statistical significance of peptide response (Poisson, cut-off p<0.05) (CD4+ T-cells; QC method): did not reach the p<0.05 cut-off

RMANVAENSSSDQRQ (BMP-7 epitope) [Peptide 8]
relative risk (RR) ([1]; DR11, method not stated, p<0.0003): 6.6
average stimulation index (SI) higher among DR11+ than among DR11− donors ([1]; method not stated, p<0.007): 2.3 fold

RSQNRSKTPKNQEAL (BMP-7 epitope) [Peptide 3]
relative risk (RR) ([1]; DQ2, QC, p<0.04): 0.17
relative risk (RR) ([1]; DQ2, nQC, p<0.01): 0.13
relative risk (RR) ([1]; DQ9, QC, p<0.003): 6.67
relative risk (RR) ([1]; DQ9, nQC, p<0.013): 4.85
relative risk (RR) ([1]; DR11, QC, p<0.0005): 6.25
relative risk (RR) ([1]; DR11, nQC, p<0.005): 4.17
average stimulation index (SI) higher among DR11+ than among DR11− donors ([1]; QC, p<0.0004): 5.8 fold

PLRSHLEPTNHAVIQ (BMP-14 epitope) [Peptide 19]
epitope designation (CD4+ T-cells): minor
statistical significance of peptide response (Poisson, cut-off p<0.05) (CD4+ T-cells; QC method): did not reach the p<0.05 cut-off

SHLEPTNHAVIQTLM (BMP-14 epitope) [Peptide 20]
epitope designation (CD4+ T-cells): minor
statistical significance of peptide response (Poisson, cut-off p<0.05) (CD4+ T-cells; QC method): did not reach the p<0.05 cut-off

SPISILFIDSANNVV (BMP-14 epitope) [Peptide 31]
relative risk (RR) ([1]; DR7, QC, p<0.001): 8.32
relative risk (RR) ([1]; DR7, nQC, p<0.002): 4.44
average SI higher among DR7+ than among DR7− donors ([1]; QC, p<0.0007): 2.7 fold

B1: BMP-14: human BMP-14 (GenBank Accession No. P43026), tested as 15-mer peptide set (protein, UniProt P43026 382-501, looked up)
Growth/differentiation factor …: APLATRQGKRPSKNLKARCSRKALHVNFKDMGWDDWIIAPLEYEAFHCEGLCEFPLRSHLEPTNHAVIQTLMNSMDPESTPPTCCVPTRLSPISILFIDSANNVVYKQYEDMVVESCGCR
modifications: tested as overlapping 15-mer peptides
structure value (CD4+ T-cells): 0.57

B2: BMP-7: human BMP-7 (GenBank Accession No. P18075), tested as 15-mer peptide set (protein, UniProt P18075 293-431, looked up)
Bone morphogenetic protein 7: STGSKQRSQNRSKTPKNQEALRMANVAENSSSDQRQACKKHELYVSFRDLGWQDWIIAPEGYAAYYCEGECAFPLNSYMNATNHAIVQTLVHFINPETVPKPCCAPTQLNAISVLYFDDSSNVILKKYRNMVVRACGCH
modifications: tested as overlapping 15-mer peptides
structure value (CD4+ T-cells): 0.70
relative immunogenicity by structure values (CD4+ T-cells; QC method): more immunogenic than BMP-14
relative immunogenicity (CD4+ T-cells; non-QC method): more immunogenic than the BMP-14 protein
treated patients who developed detectable anti-BMP antibodies [2]: 38%
